Consider ten molecules from PMC12362585, “Development and Preclinical Characterization of [^18F]H3-2406 and [^18F]H3-2407 for Positron Emission Tomography Imaging of the Histamine Subtype‑3 Receptor” (Journal of Medicinal Chemistry, 2025).

As usually defined, the IC50 is the concentration that gives 50% inhibition. High values mean lower potency, low ones higher potency. The inhibition is the percentage by which the read-out fell short of the control. The logD is the decadic logarithm of the distribution of all forms, ionised or not, between an organic phase and buffer at a given pH.

For series [1], the target named is T1, H3R (Homo sapiens, UniProt Q9Y5N1).
T1 construct: Gifford Bioscience (contract laboratory that ran the assay)
T1 sequence (Q9Y5N1 whole entry, species assumed): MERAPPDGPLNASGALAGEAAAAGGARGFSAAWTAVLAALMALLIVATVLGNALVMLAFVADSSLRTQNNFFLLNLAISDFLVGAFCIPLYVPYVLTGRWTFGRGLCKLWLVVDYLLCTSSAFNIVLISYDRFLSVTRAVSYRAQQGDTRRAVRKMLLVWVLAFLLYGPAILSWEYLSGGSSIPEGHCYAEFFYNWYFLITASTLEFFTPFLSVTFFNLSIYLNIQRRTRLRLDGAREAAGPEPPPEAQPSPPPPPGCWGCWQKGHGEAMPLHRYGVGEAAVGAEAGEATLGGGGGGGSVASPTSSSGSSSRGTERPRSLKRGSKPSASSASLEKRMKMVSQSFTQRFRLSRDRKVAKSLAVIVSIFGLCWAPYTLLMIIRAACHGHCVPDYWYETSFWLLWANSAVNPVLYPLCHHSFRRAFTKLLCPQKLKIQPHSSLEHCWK
Put plainly: H3R competitive radioligand binding assay using [^3H]AZ13582963. The settings on record: competitive binding vs [^3H]AZ13582963; for Ki: read-out: H3R K i.

Series [2] concerns the target T2, sigma-1 receptor (Homo sapiens, UniProt Q99720). Kind of series: sigma 1 binding assay. The settings on record: for Ki: read-out: sigma-1 K i; for selectivity of H3R over sigma-1: ratio of sigma-1 K i to H3R K i.
The target in series [3] is T2, sigma-1 receptor. Kind of series: Off-target screening at 10 μM, sigma-1. Format: binding.
Series [4] in a line: Log D by shake-flask method. Format: physicochemical. The settings on record: n-octanol/PBS. Here is the method:
To evaluate the binding affinities of compounds 1–9, competitive radioligand binding assays were conducted using [^3H]-AZ13582963 [4-(1S,2S)-2-(4-cyclobutylpiperazine-1-carbonyl)-cyclopropyl)-N-methyl-[2-^3 H]-benzamide]. […]. […]. Further, ACD Percepta predictions indicated these compounds are likely to cross the blood-brain barrier (BBB), as indicated by a log BB > −1 and a multiparameter optimization (MPO) score >4.0. High selectivity toward H3R over other CNS targets is essential for effective H3R PET imaging. Therefore, off-target screenings of compounds 2, 3, and 4 were conducted against various CNS receptors, G protein-coupled receptors (GPCRs), transporters, and ion channels at 10 μM (Figure S1). […]. Sigma-1 receptors, crucial for ion channel function and associated with learning, memory, and pain, , have shown synergy with H3R antagonists, including PF-03654746 and ABT-239, potentially enhancing in vivo efficacy.
The lipophilicity was measured according to previously reported methods. , In brief, PBS and n-octanol were premixed prior to the experiment. A solution containing 0.2 MBq of [^18F]3 or [^18F]4, PBS (3 mL) and n-octanol (3 mL) were prepared in a vial and vortexed for 5 min. The PBS and n-octanol layers were then separated and transferred into a centrifuge tube, followed centrifugation at 12,000 rpm for 5 min. Then PBS (0.5 mL) and n-octanol (0.05 mL) were weight and measured the radioactivity on a γ counter (PerkinElmer Wizard). The Log D values of [ ^18F]3 and [^18F]4 were calculated using the following formula: LogD=Log[(radioactivityn‐octanol/weightn‐octanol)/(radioactivityPBS/weightPBS)]

Series [5] concerns the target T3, 5-HT2C (Homo sapiens, UniProt P28335).
T3 sequence (P28335 33-458): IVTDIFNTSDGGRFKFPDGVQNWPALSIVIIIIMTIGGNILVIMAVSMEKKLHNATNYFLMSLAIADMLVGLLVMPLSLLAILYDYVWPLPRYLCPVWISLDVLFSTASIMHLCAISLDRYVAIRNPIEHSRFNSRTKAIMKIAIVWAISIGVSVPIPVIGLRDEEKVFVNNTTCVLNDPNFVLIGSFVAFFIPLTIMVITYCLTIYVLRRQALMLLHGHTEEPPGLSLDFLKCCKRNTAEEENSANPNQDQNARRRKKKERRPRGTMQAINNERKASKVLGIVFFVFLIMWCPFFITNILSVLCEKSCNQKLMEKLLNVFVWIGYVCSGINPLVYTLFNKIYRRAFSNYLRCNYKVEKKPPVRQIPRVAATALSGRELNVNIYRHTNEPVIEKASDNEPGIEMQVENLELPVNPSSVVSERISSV
Put plainly: 5HT2C binding assay. The settings on record: read-out: 5-HT2C K i.

Series [6] has as its target 5-hydroxytryptamine receptor 2A (5-HT2A) (Homo sapiens, UniProt P28223). Kind of series: Off-target screening at 10 μM, 5-HT2A. The settings on record: read-out: inhibition of 5-HT2A. The format is binding.
Series [7] has as its system CNS receptors, GPCRs, transporters, and ion channels. Kind of series: Off-target screening panel, CNS target selectivity. Format: binding. The settings on record: H3R against most CNS targets.
The target in the next series is sigma-2 (Homo sapiens, UniProt Q5BJF2). Put plainly: Off-target screening at 10 μM, sigma-2. Format: binding.
sigma-2, sequence (Q5BJF2 whole entry): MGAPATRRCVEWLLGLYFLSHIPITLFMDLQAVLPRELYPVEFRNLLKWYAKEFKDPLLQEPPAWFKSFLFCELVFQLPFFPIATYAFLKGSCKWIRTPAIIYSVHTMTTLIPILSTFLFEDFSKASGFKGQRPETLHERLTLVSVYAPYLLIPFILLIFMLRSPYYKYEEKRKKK
Series [8] concerns the target T3, 5-HT2C. Put plainly: Off-target screening at 10 μM, 5-HT2C. Format: binding. The settings on record: read-out: inhibition of 5-HT2C.
The target of series [9] is T4, H3R (Mus musculus, UniProt P58406).
T4 construct: dynamic PET imaging studies were conducted in CD1 mice; from tissue; host or cells: brain of living CD1 mice
T4 sequence (P58406 whole entry): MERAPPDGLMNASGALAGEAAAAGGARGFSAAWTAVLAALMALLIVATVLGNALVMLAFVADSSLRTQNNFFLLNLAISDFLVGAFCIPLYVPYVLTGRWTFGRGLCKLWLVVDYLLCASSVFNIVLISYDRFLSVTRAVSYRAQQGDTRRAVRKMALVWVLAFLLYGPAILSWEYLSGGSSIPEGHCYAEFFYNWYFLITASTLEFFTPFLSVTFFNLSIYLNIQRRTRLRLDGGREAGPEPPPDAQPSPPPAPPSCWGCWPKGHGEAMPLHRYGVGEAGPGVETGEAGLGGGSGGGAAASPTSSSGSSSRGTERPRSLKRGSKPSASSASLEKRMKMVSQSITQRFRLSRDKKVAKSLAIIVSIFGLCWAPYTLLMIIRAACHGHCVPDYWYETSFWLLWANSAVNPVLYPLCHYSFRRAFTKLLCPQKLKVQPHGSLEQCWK
Kind of series: Dynamic PET imaging in CD1 mice, baseline and H3R antagonist blocking. Format: in vivo. Here is the method:
To elucidate the in vivo brain uptake of [^18F]3 and [^18F]4, dynamic PET imaging studies were conducted in CD1 mice (an outbred strain of immunocompetent mice commonly used for pharmacokinetic and biodistribution studies) for 60 min. The results, which include summed PET images (0–60 min), whole-brain time-activity curves (TACs), and area under the curve (AUC) for both radioligands, are depicted in Figures and . At baseline, [^18F]3 rapidly crossed the BBB following intravenous injection, reaching peak whole-brain uptake with a standardized uptake value (SUV) value of 2.4 at 2.3 min. This was followed by a gradual washout and reached a SUV of 1.87 by 60 min. To evaluate the binding characteristics of [^18F]3, elective H3R antagonists with distinct structural scaffolds, GSK189254, enerisant, and cipralisant, were used as blocking agents. […] Quantification of specific tracer binding was performed using volume of distribution (V T) values, derived from compartmental modeling and an image-derived input function (IDIF). […] While these findings support the utility of [^18F]3 for in vivo studies, we acknowledge the inherent limitations of IDIF, including the lack of metabolite correction and potential inaccuracies in capturing early phase kinetics.
PET imaging was conducted following previously reported methods. CD1 mice (5–6 weeks) were anesthetized with 1.5% (v/v) isoflurane during the scan. A dose of 3.0 MBq of [^18F]3 or [^18F]4 was intravenously injected into the tail vein, and a dynamic scan was acquiring using a PET scanner (MOLECUBES, beta-cube) for 60 min. In the blocking studies, GSK189254 (3 mg/kg) in 0.1 mL of saline containing 5% ethanol and 5% Tween-80 was preinjected for 10 min prior to the injection of PET radioligands. The results were reconstructed and analyzed by PMOD 4.3 software.
Quantification of specific tracer binding was performed using volume of distribution (VT) values, derived from compartmental modeling and an image-derived input […]
significant reduction in H3R-rich brain regions such as the cortex and striatum under blocking conditions with GSK189254, enerisant, and cipralisant, confirming the specificity of [18F]3 binding (Table S1).
Table S1. Estimation of V T values by Logan analysis in mice with [ 18F]3 at baseline, GSK189254-blocking (3 mg/kg), enerisant-blocking (3 mg/kg), and cipralisant-blocking (3 mg/kg) conditions.
Group Baseline GSK189254 Enerisant Cipralisant blocking blocking blocking

Series [10] addresses T5, H3R (Rattus norvegicus, UniProt Q9QYN8).
T5 construct: The brains of SD rat were sectioned into 15 μm slices; from tissue; host or cells: SD rat brain sections
Kind of series: In vitro autoradiography on rat brain sections. The format is binding, SD rat. Here is the method: To validate the target specificity and selectivity, in vitro autoradiography experiments were conducted using [^18F]3 and [^18F]4 on rat brain sections. […] Furthermore, pretreatment with unlabeled compound 3 (10 μM) led to a signal reduction of over 90% in the brain. […] This discrepancy is likely attributable to additional off-target binding of [^18F]3, which is further supported by high uptake in the cerebellum – a region with low H3R expression. […] The high uptake in the cerebellum may be attributed to nonspecific binding to unidentified CNS targets. […] Nonetheless, the results support further in vivo PET evaluation to better understand their binding profiles and evaluate their potential for H3R imaging – particularly in regions with low sigma-1 abundance.
The ARG was measured according to previously reported methods. , The brains of SD rat were sectioned into 15 μm slices and stored in −80 °C. For each experiment, the brain slices allowed them to warm to room temperature and then incubated in Tris-HCl buffer (50 mM, containing 0.1% bovine serum albumin) for 10 min. The slices were incubated with [^18F]3 or [^18F]4 (0.037 MBq/mL) in the presence of either DMSO (baseline study), GSK189254 (10 μM, blocking study), and unlabeled 3 or 4 (10 μM, blocking study) at room temperature for 30 min. Following incubation, the brain slices were washed three times with cold Tris-HCl buffer (50 mM) for 5 min each, and then dipped in water 2 times for 5 s. The brain slices were dried under cold air and exposed to a Phosphor Screen (BAS IP MS2025, Cytiva) for 2 h. The radioactivity and imaging were captured using an Amersham Typhoon 5 (Cytiva) and the data were analyzed using ImageJ software.

SMILES strings stand for the structures.

T2 sequence (Q99720 whole entry, species assumed): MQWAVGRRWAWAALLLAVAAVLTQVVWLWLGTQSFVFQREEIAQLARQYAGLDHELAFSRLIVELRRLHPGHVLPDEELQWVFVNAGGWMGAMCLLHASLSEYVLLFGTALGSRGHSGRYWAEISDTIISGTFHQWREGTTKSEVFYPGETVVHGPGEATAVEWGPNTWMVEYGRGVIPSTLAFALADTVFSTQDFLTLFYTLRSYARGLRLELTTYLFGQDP
5-hydroxytryptamine receptor 2A (5-HT2A), sequence (P28223 whole entry, species assumed): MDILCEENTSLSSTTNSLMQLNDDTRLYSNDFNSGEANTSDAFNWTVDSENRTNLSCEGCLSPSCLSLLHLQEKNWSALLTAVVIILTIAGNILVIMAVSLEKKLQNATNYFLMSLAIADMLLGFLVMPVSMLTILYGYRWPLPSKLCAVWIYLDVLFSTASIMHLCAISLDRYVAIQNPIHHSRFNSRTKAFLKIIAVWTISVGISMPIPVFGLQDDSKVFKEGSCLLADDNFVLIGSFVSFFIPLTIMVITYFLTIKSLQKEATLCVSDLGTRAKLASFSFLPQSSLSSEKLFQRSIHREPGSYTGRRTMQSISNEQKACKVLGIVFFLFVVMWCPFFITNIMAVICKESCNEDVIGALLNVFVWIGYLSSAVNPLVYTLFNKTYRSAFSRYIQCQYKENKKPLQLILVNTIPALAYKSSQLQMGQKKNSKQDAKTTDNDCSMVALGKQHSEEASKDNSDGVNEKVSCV
T5 sequence (Q9QYN8 whole entry): as the sequence (P58406 whole entry) above, with A15T, T286A, G290A, H387R, V389I counted along it

Regarding `[11CH3]NC(=O)c1ccc([C@H]2C[C@@H]2C(=O)N2CCN(C3CCC3)CC2)cc1` [AZD13153556, reference compound], the IC50 at H3R [1] came to 23.5 nM.

Regarding `O=C([C@H]1C[C@@H]1c1ccc(F)cc1)N1CCN(C2CCC2)CC1` [Compound 2, (4-Cyclobutylpiperazin-1-yl)((1S,2S)-2-(4-fluorophenyl)cyclopropyl)methanone], the Ki at sigma-1 receptor [2] amounted to 1.61 nM. On sigma-1 receptor [3], this molecule displayed an inhibition at 10 µM of 98.1%. Also, the logD in [4] is 2.76.

For the molecule `O=C([C@H]1C[C@@H]1c1ccc(F)cc1)N1CCN(C2CCCC2)CC1` [Compound 3, (4-Cyclopentylpiperazin-1-yl)((1S,2S)-2-(4-fluorophenyl)cyclopropyl)methanone], at sigma-1 receptor [2], the “selectivity of H3R over sigma-1” value was 69 fold. Further, the Ki on sigma-1 receptor [2] was 199 nM; on 5-HT2C [5], greater than 1000 nM. Besides, the results for the inhibition at 10 µM (on sigma-1 receptor [3]; in [6]) were 93.2% and 64.5%, respectively. The logD in series [4] is 2.82. Further, the CNS target selectivity result in series [7] is given as “over 300 fold”.

Consider `O=C([C@H]1C[C@@H]1c1ccc(F)cc1)N1CCN(C2CCCCC2)CC1` [Compound 4, (4-Cyclohexylpiperazin-1-yl)((1S,2S)-2-(4-fluorophenyl)cyclopropyl)methanone], for which the inhibition at 10 µM was determined as 93.6% on sigma-2, 94.4% against sigma-1 receptor [3], 59% in [6] and 80.3% on 5-HT2C [8]. For the same molecule, the “selectivity of H3R over sigma-1” value on sigma-1 receptor [2] was determined as 407 fold. The results for the Ki at sigma-1 receptor [2] and on 5-HT2C [5] were 1280 nM and greater than 1000 nM, respectively. Also, the logD in series [4] came out at 3.35. For the same molecule, the CNS target selectivity result in series [7] is reported as “over 300 fold”.

With `O=C([C@H]1C[C@@H]1c1ccc(F)cc1)N1CCN(C2CCCCCC2)CC1` [Compound 5, (4-Cycloheptylpiperazin-1-yl)((1S,2S)-2-(4-fluorophenyl)cyclopropyl)methanone], on H3R [1], the IC50 was greater than 1000 nM and the Ki was greater than 1000 nM.

For `O=C([C@H]1C[C@@H]1c1ccc(F)cc1)N1CC2(C1)CN(C1CCC1)C2` [Compound 6, (6-Cyclobutyl-2,6-diazaspiro[3.3]heptan-2-yl)((1S,2S)-2-(4-fluorophenyl)cyclopropyl)methanone], on H3R [1], the IC50 is greater than 1000 nM and the Ki is greater than 1000 nM.

As for `O=C([C@H]1C[C@@H]1c1ccc(F)cc1)N1C[C@@H]2C[C@H]1CN2C1CCC1` [Compound 7, ((1S,4S)-5-Cyclobutyl-2,5-diazabicyclo[2.2.1]heptan-2-yl)((1S,2S)-2-(4-fluorophenyl)cyclopropyl)methanone], at H3R [1], the IC50 was greater than 1000 nM and the Ki was greater than 1000 nM.

Consider `O=C([C@H]1C[C@@H]1c1ccc(F)cc1)N1C[C@@H]2CN(C3CCC3)C[C@@H]2C1` [Compound 8, ((3aR,6aS)-5-Cyclobutylhexahydropyrrolo[3,4-c]pyrrol-2(1H)-yl)((1S,2S)-2-(4-fluorophenyl)cyclopropyl)methanone], for which, on H3R [1], the IC50 is greater than 1000 nM and the Ki was greater than 1000 nM.

For `O=C([C@H]1C[C@@H]1c1ccc([18F])cc1)N1CCN(C2CCCCC2)CC1` [[^18F]4], the “whole-brain signal reduction based on AUC, GSK189254 blocking” value on H3R [9] (GSK189254 3 mg/kg, 0–60 min) is listed as “did not yield a significant reduction”. On H3R [9] (baseline, CD1 mice), the “time of peak whole-brain uptake” value is given as 4.3 min and the “whole-brain uptake at 60 min” value was 1.77 SUV. Moreover, the peak whole-brain uptake on H3R [9] (baseline, intravenous injection, CD1 mice) was found to be 1.83 SUV. Also, on H3R [9] (baseline, washout), the “reduction in whole-brain uptake from peak after 60 min dynamic scan” value turned out to be 3.3%. Moreover, in series [4], the logD was determined as 3.35. For the same molecule, the “reduction in radioactivity across brain regions, GSK189254 blocking” value on H3R [10] (GSK189254 10 μM) is 38.7–68.2%. Moreover, on H3R [10] (unlabeled 3 or 4 at 10 μM), the “signal reduction, self-blocking with unlabeled compound” value was 66.6–78.8%.

As to `O=C([C@H]1C[C@@H]1c1ccc(-c2ccc([18F])nc2)cc1)N1CCN(C2CCC2)CC1` [[^18F]H3-2404, reference compound], the Ki on H3R [1] was 10.2 nM.
